Tests used:
[1] = biological target: T1, CtVrg4 (Vrg4 from Chaetomium thermophilum) (Thermochaetoides thermophila, UniProt G0S534); test: competition of [3H]GMP uptake into proteoliposomes; assay type: biochemical
T1 construct: gene CTHT_0023930; full length, 385 residues, N-terminal 12-His tag, about 37 kDa, expressed in S. cerevisiae FGY217, purified in DDM

[2] = biological target: T1, CtVrg4 (Vrg4 from Chaetomium thermophilum); test: thermal shift titration (Tycho NT.[…]); assay type: binding
[3] = biological target: T2, CtVrg4 (Vrg4 from Chaetomium thermophilum) (Thermochaetoides thermophila, UniProt G0S534, Y310F); test: thermal shift titration (Tycho NT.[…]); assay type: binding
T2 construct: gene CTHT_0023930; full length, 385 residues, N-terminal 12-His tag, about 37 kDa, expressed in S. cerevisiae FGY217, purified in DDM

[4] = biological target: T3, CtVrg4Δ31 (Thermochaetoides thermophila, UniProt G0S534); test: competition of [3H]GMP uptake into proteoliposomes; assay type: biochemical
T3 construct: gene CTHT_0023930; C-terminal truncation lacking the last 31 residues (Golgi retrieval signal), residues 1-354, N-terminal 12-His tag, expressed in S. cerevisiae FGY217, purified in DDM

[5] = biological target: T4, Chymotrypsin-cleaved CtVrg4 (cCtVrg4) (Thermochaetoides thermophila, UniProt G0S534); test: exchange of internal GDP-mannose with external [3H]GMP in proteoliposomes; assay type: biochemical; conditions: yeast polar lipid proteoliposomes; internal GDP-mannose 1-1000 μM; 0.384 μM external [3H]GMP; room temperature, 10 min
T4 construct: gene CTHT_0023930; full-length His-tagged protein cut by chymotrypsin (50:1, 2 h, 18 °C); crystals of cleaved protein ~25 kDa

[6] = biological target: T3, CtVrg4Δ31; test: thermal shift titration (Tycho NT.[…]); assay type: binding
[7] = biological target: T2, CtVrg4 (Vrg4 from Chaetomium thermophilum); test: competition of [3H]GMP uptake into proteoliposomes; assay type: biochemical

T2 sequence (G0S534 entry or part of it Y310F): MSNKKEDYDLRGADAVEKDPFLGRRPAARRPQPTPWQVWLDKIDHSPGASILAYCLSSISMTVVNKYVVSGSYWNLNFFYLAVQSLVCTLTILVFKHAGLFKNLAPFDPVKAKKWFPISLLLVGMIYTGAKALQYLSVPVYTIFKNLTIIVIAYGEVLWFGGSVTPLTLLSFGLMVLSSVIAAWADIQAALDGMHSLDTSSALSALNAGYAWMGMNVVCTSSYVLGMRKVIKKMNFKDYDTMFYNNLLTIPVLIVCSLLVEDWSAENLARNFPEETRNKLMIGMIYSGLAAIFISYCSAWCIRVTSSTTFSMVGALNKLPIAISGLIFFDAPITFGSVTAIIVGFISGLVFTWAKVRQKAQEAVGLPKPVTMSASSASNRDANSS
T3 sequence (G0S534 entry or part of it, stated change not applied): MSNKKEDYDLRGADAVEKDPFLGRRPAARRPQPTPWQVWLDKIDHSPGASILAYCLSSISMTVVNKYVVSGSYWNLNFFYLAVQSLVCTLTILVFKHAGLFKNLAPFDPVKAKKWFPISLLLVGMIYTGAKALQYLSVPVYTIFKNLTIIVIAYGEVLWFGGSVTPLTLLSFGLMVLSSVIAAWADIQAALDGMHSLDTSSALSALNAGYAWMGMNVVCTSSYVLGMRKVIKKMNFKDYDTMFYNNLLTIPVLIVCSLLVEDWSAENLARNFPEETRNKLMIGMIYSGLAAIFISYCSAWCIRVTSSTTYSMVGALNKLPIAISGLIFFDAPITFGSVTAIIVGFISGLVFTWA
T1 sequence (G0S534 entry or part of it): as the sequence (G0S534 entry or part of it Y310F) above, with F310Y counted along it
T4 sequence (G0S534 entry or part of it): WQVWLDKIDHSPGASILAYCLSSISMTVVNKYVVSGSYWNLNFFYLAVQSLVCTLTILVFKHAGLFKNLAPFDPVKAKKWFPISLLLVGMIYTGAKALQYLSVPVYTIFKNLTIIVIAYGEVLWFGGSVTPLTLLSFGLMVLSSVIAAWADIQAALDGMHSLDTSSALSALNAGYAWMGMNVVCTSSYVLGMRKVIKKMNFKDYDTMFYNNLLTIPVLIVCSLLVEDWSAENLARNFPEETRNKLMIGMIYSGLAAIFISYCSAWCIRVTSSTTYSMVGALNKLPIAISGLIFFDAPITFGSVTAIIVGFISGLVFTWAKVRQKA

IC50 [1] [µM]	Kd [2] [µM]	Kd [3] [µM]	IC50 [4] [µM]	Km [5] [µM]	Kd [6] [µM]	IC50 [7] [µM]	Compound
25.5	74.3	130	48	32.1	58.5	47.1	Nc1nc2c(ncn2[C@@H]2O[C@H](COP(=O)(O)OP(=O)(O)O[C@H]3O[C@H](CO)[C@@H](O)[C@H](O)[C@@H]3O)[C@@H](O)[C@H]2O)c(=O)[nH]1 [GDP-mannose]
	143	139			63.2		Nc1nc2c(ncn2[C@@H]2O[C@H](COP(=O)(O)O)[C@@H](O)[C@H]2O)c(=O)[nH]1 [GMP]

Reference: article PMC10118193, “Biochemical characterization of a GDP-mannose transporter from Chaetomium thermophilum” (PLOS ONE, 2023)
